From ChEMBL document CHEMBL1201862, “PubChem BioAssay data set” (2004)
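Grown in 96-well plates, cells were treated for 48 hours with each compound at five concentrations. Insufficient inhibition: endpoint recorded as highest concentration tested. GI50 = concentration required for 50% inhibition of growth.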 Activity calls are given as the source filed them. Rule as the data show it: active = GI50 up to about 1.1 µM and inactive = higher.

What was measured:
Experiment in all cases: NCI anticancer screen, dose series, 48 h
[1] = tested on: A498
[2] = tested on: KM12
[3] = tested on: K562
[4] = tested on: OVCAR-3
[5] = tested on: A549
[6] = tested on: UO-31
[7] = tested on: ACHN
[8] = tested on: M14
[9] = tested on: MDA-MB-435
[10] = tested on: SR
[11] = tested on: SW-620
[12] = tested on: RXF 393
[13] = tested on: SK-MEL-2
[14] = tested on: DU-145
[15] = tested on: MDA-MB-231
[16] = tested on: NCI-H522
[17] = tested on: OVCAR-8
[18] = tested on: Hs-578T
[19] = tested on: PC-3
[20] = tested on: OVCAR-4

| Compound | GI50 [1] | GI50 [2] | GI50 [3] | GI50 [4] | GI50 [5] | GI50 [6] | GI50 [7] | GI50 [8] | GI50 [9] | GI50 [10] | GI50 [11] | GI50 [12] | GI50 [13] | GI50 [14] | GI50 [15] | GI50 [16] | GI50 [17] | GI50 [18] | GI50 [19] | GI50 [20] |
| --- | --- | --- | --- | --- | --- | --- | --- | --- | --- | --- | --- | --- | --- | --- | --- | --- | --- | --- | --- | --- |
| Cc1cc2cc3c(O)nc(O)nc3nc2cc1C | > 100 µM (inactive) | > 100 µM (inactive) | > 100 µM (inactive) | > 100 µM (inactive) | > 100 µM (inactive) | > 100 µM (inactive) | > 100 µM (inactive) | > 100 µM (inactive) | > 100 µM (inactive) | > 100 µM (inactive) | > 100 µM (inactive) | 52.2 µM (inactive) | > 100 µM (inactive) | > 100 µM (inactive) | > 100 µM (inactive) | > 100 µM (inactive) | > 100 µM (inactive) | > 100 µM (inactive) | > 100 µM (inactive) | > 100 µM (inactive) |
| C=C1C(=O)C2=CC1CCC(=O)C1(C)CCC(OC(C)=O)C(C)(C)C1CC2O (stereo not given) | 3.18 µM (inactive) | 3.31 µM (inactive) | 0.352 µM (active) | 3.73 µM (inactive) | 4.38 µM (inactive) | 2.06 µM (inactive) | 1.12 µM (inactive) | 2.64 µM (inactive) | 3.24 µM (inactive) | 0.347 µM (active) | 2.42 µM (inactive) | 2.23 µM (inactive) | 5 µM (inactive) | 3.03 µM (inactive) | 4.65 µM (inactive) | 0.522 µM (active) | 3.81 µM (inactive) | 3.58 µM (inactive) | 7.19 µM (inactive) | 2.17 µM (inactive) |
| N#CC1(Nc2ccc(-c3ccc(NC4(C#N)CCCC4)cc3)cc2)CCCC1 | > 100 µM (inactive) | > 100 µM (inactive) | > 100 µM (inactive) | > 100 µM (inactive) | > 100 µM (inactive) | > 100 µM (inactive) | 34.9 µM (inactive) | > 100 µM (inactive) | > 100 µM (inactive) | > 100 µM (inactive) | > 100 µM (inactive) | > 100 µM (inactive) | > 100 µM (inactive) | > 100 µM (inactive) | > 100 µM (inactive) | > 100 µM (inactive) | > 100 µM (inactive) | > 100 µM (inactive) | > 100 µM (inactive) | > 100 µM (inactive) |
| Nc1n[nH]c(Nc2ccc(Cl)cc2)c1P(=O)(c1ccccc1)c1ccccc1 | 37.8 µM (inactive) | 17.4 µM (inactive) | 64.9 µM (inactive) | 18.1 µM (inactive) | 23.9 µM (inactive) | 29.4 µM (inactive) | 34.4 µM (inactive) | 21.3 µM (inactive) | 19.1 µM (inactive) | 53.1 µM (inactive) | 34.3 µM (inactive) | 20.9 µM (inactive) | 19.9 µM (inactive) | 37.7 µM (inactive) | 19.1 µM (inactive) | 20.2 µM (inactive) | 18.4 µM (inactive) | 14.8 µM (inactive) | 19.9 µM (inactive) | 22 µM (inactive) |
| O=P1(N(CCCl)CCCl)Oc2c(Cl)cc(Cl)c(Cl)c2Cc2c(Cl)c(Cl)cc(Cl)c2O1 | > 100 µM (inactive) | 42 µM (inactive) | 74 µM (inactive) | 45.2 µM (inactive) | 38.5 µM (inactive) | 48.4 µM (inactive) | 51.1 µM (inactive) | 75.3 µM (inactive) | 60.5 µM (inactive) | 35.2 µM (inactive) | 47.4 µM (inactive) | > 100 µM (inactive) | 22 µM (inactive) | 71.1 µM (inactive) | 42.4 µM (inactive) | 31 µM (inactive) | 55.1 µM (inactive) | 30.3 µM (inactive) | 23.2 µM (inactive) | 26.7 µM (inactive) |
| C[N+]1([O-])[C@H]2CC(OC(=O)[C@H](CO)c3ccccc3)C[C@H]1[C@H]1O[C@H]12 (stereo not given in full) | > 100 µM (inactive) | > 100 µM (inactive) | > 100 µM (inactive) | > 100 µM (inactive) | > 100 µM (inactive) | > 100 µM (inactive) | > 100 µM (inactive) | > 100 µM (inactive) | > 100 µM (inactive) | > 100 µM (inactive) | > 100 µM (inactive) | > 100 µM (inactive) | > 100 µM (inactive) | > 100 µM (inactive) | > 100 µM (inactive) | > 100 µM (inactive) | > 100 µM (inactive) | > 100 µM (inactive) | > 100 µM (inactive) | > 100 µM (inactive) |
| CN(C)c1ccc(/C=C/c2cc(-c3ccccc3)[n+](C)n2-c2ccccc2)cc1 | 0.774 µM (active) | 0.0635 µM (active) | 0.0531 µM (active) | 0.234 µM (active) | 0.411 µM (active) | 1.86 µM (inactive) | 1.44 µM (inactive) | 0.617 µM (active) | 0.158 µM (active) | 0.103 µM (active) | 0.299 µM (active) | 0.281 µM (active) | 0.224 µM (active) | 0.215 µM (active) | 0.242 µM (active) | < 0.01 µM (active) | 0.207 µM (active) | 0.0332 µM (active) | 0.158 µM (active) | 6.41 µM (inactive) |
| O=C(NCCCNCCCCNCCCNC(=O)c1cc(-c2ccccc2)nc2ccccc12)c1cc(-c2ccccc2)nc2ccccc12 | 20.7 µM (inactive) | 2.19 µM (inactive) | 2.14 µM (inactive) | 2.66 µM (inactive) | 2.12 µM (inactive) | 20.9 µM (inactive) | 18.5 µM (inactive) | 2.15 µM (inactive) | 1.8 µM (inactive) | 1.97 µM (inactive) | 2.62 µM (inactive) | 3.69 µM (inactive) | 1.62 µM (inactive) | 17.6 µM (inactive) | 7.06 µM (inactive) | 2.01 µM (inactive) | 1.82 µM (inactive) | 1.75 µM (inactive) | 2.12 µM (inactive) | 2.64 µM (inactive) |
| Cc1cccc2c(N)c3cccc(C(=O)NCCN4CCOCC4)c3nc12 | 1.31 µM (inactive) | 0.301 µM (active) | 0.203 µM (active) | 1.47 µM (inactive) | 0.192 µM (active) | 0.46 µM (active) | 0.101 µM (active) | 0.495 µM (active) | 0.57 µM (active) | 0.274 µM (active) | 0.166 µM (active) | 0.697 µM (active) | 1.11 µM (active) | 0.482 µM (active) | 0.759 µM (active) | 0.182 µM (active) | 0.249 µM (active) | 0.0849 µM (active) | 0.436 µM (active) | 0.762 µM (active) |
| N#CCCN(CCC#N)c1ccc(/C=C2\SC(=S)NC2=O)cc1 | 57.1 µM (inactive) | > 100 µM (inactive) | > 100 µM (inactive) | > 100 µM (inactive) | > 100 µM (inactive) | > 100 µM (inactive) | 41.5 µM (inactive) | > 100 µM (inactive) | > 100 µM (inactive) | > 100 µM (inactive) | > 100 µM (inactive) | 37.9 µM (inactive) | > 100 µM (inactive) | > 100 µM (inactive) | 30.3 µM (inactive) | > 100 µM (inactive) | 44.2 µM (inactive) | > 100 µM (inactive) | > 100 µM (inactive) | 30.8 µM (inactive) |
| Cc1nc(Cl)c2sc(=S)n(-c3ccc(F)cc3)c2n1 | 1.58 µM (inactive) | 12.7 µM (inactive) | 7.6 µM (inactive) | 1.94 µM (inactive) | 12.8 µM (inactive) | 1.69 µM (inactive) | 13.9 µM (inactive) | 2.11 µM (inactive) | 2.59 µM (inactive) | 1.39 µM (inactive) | 3.7 µM (inactive) | 7.85 µM (inactive) | 12.8 µM (inactive) | 1.51 µM (inactive) | 7.98 µM (inactive) | 2.84 µM (inactive) | 14.6 µM (inactive) | 1.86 µM (inactive) | 19.9 µM (inactive) | 13.6 µM (inactive) |
| O=C(O)CCCN1CCCCC1 | > 100 µM (inactive) | > 100 µM (inactive) | > 100 µM (inactive) | > 100 µM (inactive) | > 100 µM (inactive) | > 100 µM (inactive) | > 100 µM (inactive) | > 100 µM (inactive) | > 100 µM (inactive) | > 100 µM (inactive) | > 100 µM (inactive) | > 100 µM (inactive) | > 100 µM (inactive) | > 100 µM (inactive) | > 100 µM (inactive) | > 100 µM (inactive) | > 100 µM (inactive) | > 100 µM (inactive) | > 100 µM (inactive) | > 100 µM (inactive) |
| Cc1ccc(CC(Cc2ccccc2C)C(=O)O)c(C(=O)O)c1 (stereo not given) | > 100 µM (inactive) | > 100 µM (inactive) | > 100 µM (inactive) | > 100 µM (inactive) | > 100 µM (inactive) | > 100 µM (inactive) | > 100 µM (inactive) | > 100 µM (inactive) | > 100 µM (inactive) | > 100 µM (inactive) | > 100 µM (inactive) | > 100 µM (inactive) | > 100 µM (inactive) | > 100 µM (inactive) | > 100 µM (inactive) | > 100 µM (inactive) | > 100 µM (inactive) | > 100 µM (inactive) | > 100 µM (inactive) | > 100 µM (inactive) |
| CCCC[C@H]1C(=O)O[C@H](C)[C@H](NC(=O)c2cccc(NC=O)c2O)C(=O)O[C@@H](C)[C@@H]1OC(=O)CC(C)C [ANTIMYCIN A3] | 4.23 µM (inactive) | 0.444 µM (active) | < 0.0123 µM (active) | 2.38 µM (inactive) | 0.0441 µM (active) | 4.94 µM (inactive) | 1.15 µM (inactive) | 14.9 µM (inactive) | 1.11 µM (active) | < 0.0347 µM (active) | 8.18 µM (inactive) | 6.49 µM (inactive) | 1.97 µM (inactive) | 3.55 µM (inactive) | 4.37 µM (inactive) | 5.93 µM (inactive) | 2.05 µM (inactive) | 13 µM (inactive) | 0.278 µM (active) | 2.37 µM (inactive) |
